Patent US8445502B2, “Pharmaceutical formulations comprising salts of a protein kinase inhibitor and methods of using same” (Astex Pharmaceuticals, Inc., priority 2007, dated 2013)
“Also recorded” adds a separate entry of the source.

Experiments:
SB-CL2 melanoma cells = experiment: SB-CL2 melanoma tumor model in athymic nude mice; format: in vivo; settings: IP 50 & 75 mg/kg, qd × 5, TV-10
Experimental: MP470 and MP470 HCl were tested against different tumor types in athymic nude mice as summarized below (Table 8). Various formulations and routes were evaluated. HT-29 colorectal cancer cells and SB-CL2 melanoma cells were implanted subcutaneously, while A549 lung cancer cells, MiaPaCa-2 pancreatic cancer cells, TT medullary thyroid cancer cells, and OVCAR-3 ovarian cancer cells were implanted […] in the hind flank of mice. All animals were allowed to develop medium-sized (80-125 mg) tumors, before initiation of dosing. Tumor volume and mouse bodyweight were followed over the course of the study.

A549 NSCLC cells = experiment: Sensitization of NSCLC cells to carboplatin; format: cell-based; settings: Homo sapiens; A549, single agent
Experimental: (§1) The non-small cell lung cancer cell lines A549 and NCI-H647 were used for these experiments. […] The IC50 concentrations observed for carboplatin against both of these cell lines was consistent with this.
(§2) Two sub-IC50 doses of MP470.HCl were tested in combination with carboplatin to evaluate possible synergism between these agents and consequently a lower IC50 value for carboplatin in each of the cell lines.
(§3) MP470.HCl was able to dramatically decrease the IC50 of carboplatin in these cells.

NCI-H647 NSCLC cells = experiment: Sensitization of NSCLC cells to carboplatin; format: cell-based; settings: Homo sapiens; NCI-H647, single agent
Experimental: as §1, §2, §3

[1] = system: Erk phosphorylation in Panc-1 Pancreas Cancer Cells; experiment: Erk phosphorylation after PMA stimulation; format: cell-based; settings: PMA-stimulated cells; compared to PMA alone and PD98059; hydrochloride
From the text: FIG. 11 illustrates the Erk phosphorylation changes in Panc-1 Pancreas Cancer Cells after MP470 hydrochloride exposure
Regulation of Erk phosphorolation—MP470.HCl activity was screened against potential biomarkers, including proteins, such as Erk that are activated downstream of c-Kit. Erk was selected from potential candidate markers to evaluate changes in protein phosphorylation in treated cancer cell lines because MP470 appeared to regulate this event. […] Exposure to PMA is known to rapidly stimulate Erk phosphorylation and was used as a positive control.

[2] = both, Sprague Dawley, rat, in vivo, 72 h
Experimental: Four groups of Sprague Dawley rats, each consisting of two males and two females, received escalating single doses of 100, 200, 800 and 2000 mg/kg of the test article. MP470.HCl was suspended in an aqueous vehicle constituting 0.5% w/v carboxymethylcellulose and administered by oral gavage. […] Doses were based on body weights on the day of dosing. The animals were euthanized after the last observation. […] A single oral dose no-observed-effect level (NOEL) was 2000 mg/kg. Acute maximum tolerated dose (MTD) was greater than 2000 mg/kg (highest dose tested).

[3] = 28-day chronic oral tolerability and toxicokinetics in dog; format: in vivo; settings: for mean liver weights compared with the control group / mean liver weights relative to brain weights compared with the control group: dosing period; for mean heart weights relative to body weight compared with the control group: recovery period; for AUC / Cmax / half-life: po
Experimental: In a chronic tolerability study of MP470 hydrochloride salt in the dog, groups of six male and six female dogs received 0, 30, 100, or 300 mg/kg/day of the test article (Groups 1-4, respectively) for 28 days. MP470.HCl was administered, by capsule, as a dry powder blend with sodium lauryl sulfate. […] In males, increased incidences of emesis and soft feces/diarrhea for Groups 3-4 and discolored and mucoid feces for Groups 2-4 were observed. In females, increased incidences of emesis and mucoid feces for Group 4, increased incidences of soft feces/diarrhea for Groups 3-4, and discolored feces for Groups 2-4 were noted. These clinical abnormalities were not considered adverse. No test article-related effects on body weight or food consumption were observed during the dosing or recovery periods. No test-article related lesions were noted during ophthalmic examinations and all electrocardiograms of the test and control animals were within normal limits. No test article related effects on hematology or urinalysis parameters were observed during the dosing or recovery periods.
Test article related effects on clinical chemistry parameters during the dosing period were limited to lower mean serum aspartate aminotransferase (75%) and plasma thyroxine (50%) levels for the Group 4 males when compared with the control group. […] Test article related organ weight changes during the recovery period were limited to statistically lower mean heart weights relative to body weight for the Group 3-4 females (85 and 89%, respectively) when compared with the control group.
There was adequate systemic exposure, in general plasma concentration of the test article increased relatively rapidly after treatment, followed by a steady decline for all dose groups and both sexes. Systemic exposure to the test article, as measured by Cmax and AUC, increased with increasing dose in both sexes, but the increase was generally less than dose proportional. No significant differences in exposure to the test article were observed between male and female dogs. No accumulation of the drug was evident as measured by difference in exposure between day 0 and day 27. The time to reach maximal plasma concentration (t-max) ranged from 2-4 hours for Groups 2 and 3 and ranged from 2-8 hours for Group 4. The terminal half-lives varied widely and ranged from 7-84.7 hours for Group 2, 16-47.7 hours for Group 3 and 10.5-28 hours for Group 4. […] There was a large variability in exposure.
A NOEL could not be determined; the no-observed-adverse-effect level (NOAEL) was considered to be 300 mg/kg/day (6000 mg/m2/d) for both sexes. A STD could not be calculated in this study and is likely to be higher than 300 mg/kg/day (6000 mg/m2/d).

[4] = Group 3 females (100 mg/kg/day)
[5] = Group 4 females (300 mg/kg/day)
[6] = both sexes, beagle, dog, in vivo, 30 mg/kg/day
[7] = both sexes, beagle, dog, in vivo, 100 mg/kg/day
[8] = both sexes, beagle, dog, in vivo, 300 mg/kg/day

SMILES: S=C(NCc1ccc2c(c1)OCO2)N1CCN(c2ncnc3c2oc2ccccc23)CC1 [MP470, 4-[1]benzofuro[3,2-d]pyrimidin-4-yl-N-(1,3-benzodioxol-5-ylmethyl)piperazine-1-carbothioamide]
- Outcome: tumor growth (SB-CL2 melanoma cells): Dose dependency

SMILES: Cl.S=C(NCc1ccc2c(c1)OCO2)N1CCN(c2ncnc3c2oc2ccccc23)CC1 [MP470.HCl, 4-[1]benzofuro[3,2-d]pyrimidin-4-yl-N-(1,3-benzodioxol-5-ylmethyl)piperazine-1-carbothioamide hydrochloride]
- IC50 (A549 NSCLC cells): 6.9 µM
- IC50 (NCI-H647 NSCLC cells): 7.86 µM
- level of Erk phosphorylation (P-Erk) [1]: reduced the level of Erk phosphorylation; also recorded: reduced the level of P-Erk below that of PD98059
- single oral dose no-observed-effect level (NOEL) [2]: 2000 mg/kg
- Acute maximum tolerated dose (MTD) ([2]; po): greater than 2000 mg/kg
- mean liver weights compared with the control group ([3]; Group 2 females (30 mg/kg/day)): 124%
- mean liver weights relative to brain weights compared with the control group ([3]; Group 2 females (30 mg/kg/day)): 117%
- mean liver weights compared with the control group [3, 4]: 123%
- mean liver weights relative to brain weights compared with the control group [3, 4]: 121%
- mean heart weights relative to body weight compared with the control group [3, 4]: 85%
- mean liver weights compared with the control group [3, 5]: 119%
- mean liver weights relative to brain weights compared with the control group [3, 5]: 120%
- mean heart weights relative to body weight compared with the control group [3, 5]: 89%
- NOAEL at 28 days ([3]; beagle, dog, in vivo, dogs, both sexes, 28 days, read-out: no-observed-adverse-effect level (NOAEL)): 300 mg/kg/day
- AUC [3, 6]: 97.9 to 1130 ng·h/mL
- Cmax [3, 6]: 42.5 to 154 ng/mL
- half-life [3, 6]: 420 to 5080 min
- AUC [3, 7]: 257 to 2530 ng·h/mL
- Cmax [3, 7]: 78.3 to 231 ng/mL
- half-life [3, 7]: 960 to 2860 min
- AUC [3, 8]: 559 to 4890 ng·h/mL
- Cmax [3, 8]: 192 to 329 ng/mL
- half-life [3, 8]: 630 to 1680 min
- STD (severely toxic dose) ([3]; both, beagle, dog, in vivo, 28 days): > 6000 mg/m2/d
- mortalities ([3]; dogs, 30, 100 or 300 mg/kg/day by capsule, 28 days): no mortalities
- time to reach maximal plasma concentration (t-max) ([3]; dogs, Group 4 (300 mg/kg/day)): 2 to 8 h
- time to reach maximal plasma concentration (t-max) ([3]; dogs, Groups 2 and 3 (30 and 100 mg/kg/day)): 2 to 4 h
- no-observed-adverse-effect level (NOAEL) ([3]; dogs, both sexes, 28 days): 6000 mg/m2/d
